Experimental data published in PubChem BioAssay AID328 (DTP/NCI, 2004).
“And” between values parts separate entries of the source, which are not always exact repeats. Equal entries are not always repeated. Toxic doses and inconclusive results are not listed.

Tested on: BDF1 mice, P388 leukemia ip, median survival T/C
Assay: NCI In Vivo Anticancer Drug Screen. Data for tumor model P388 Leukemia (intraperitoneal) in B6D2F1 (BDF1) mice
Settings: endpoint: median survival time, higher = longer survival
Method in brief: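 Compound-treated tumour-bearing mice were compared with vehicle-treated controls. Survival was recorded, and the value is the treated-group measurement divided by the control-group measurement (T/C).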

[1] = dose: 100.0 mg/kg/injection, schedule: Q01DX009 (ip), vehicle: Klucel (hydroxypropylcellulose) (HPC)
[2] = dose: 200.0 mg/kg/injection, schedule: Q01DX009 (ip), vehicle: Klucel (hydroxypropylcellulose) (HPC)
[3] = dose: 25.0 mg/kg/injection, schedule: Q01DX009 (ip), vehicle: saline with Tween-80
[4] = dose: 100.0 mg/kg/injection, schedule: Q01DX009 (ip), vehicle: saline with Tween-80
[5] = dose: 200.0 mg/kg/injection, schedule: Q01DX009 (ip), vehicle: saline with Tween-80
[6] = dose: 100.0 mg/kg/injection, schedule: Q01DX009 (ip), vehicle: saline
[7] = dose: 100.0 mg/kg/injection, schedule: Q01DX001 (ip), vehicle: Klucel (hydroxypropylcellulose) (HPC)
[8] = dose: 400.0 mg/kg/injection, schedule: Q01DX009 (ip), vehicle: Klucel (hydroxypropylcellulose) (HPC)
[9] = dose: 100.0 mg/kg/injection, schedule: Q04DX003 (ip), vehicle: other
[10] = dose: 200.0 mg/kg/injection, schedule: Q04DX003 (ip), vehicle: other
[11] = dose: 400.0 mg/kg/injection, schedule: Q04DX003 (ip), vehicle: other
[12] = dose: 50.0 mg/kg/injection, schedule: Q04DX003 (ip), vehicle: saline with Tween-80
[13] = dose: 100.0 mg/kg/injection, schedule: Q04DX003 (ip), vehicle: saline with Tween-80
[14] = dose: 200.0 mg/kg/injection, schedule: Q04DX003 (ip), vehicle: saline with Tween-80
[15] = dose: 50.0 mg/kg/injection, schedule: Q01DX009 (ip), vehicle: saline with Tween-80

`CCC1CCN2CCc3c([nH]c4ccccc34)C(C(=O)OC)(c3cc4c(cc3OC)N(C)C3C(O)(C(=O)OC)C(OC(C)=O)C5(CC)CCCN6CCC43C65)CC2C1` (stereo not drawn) was tested, and the T/C (dose: 0.06 mg/kg/injection, schedule: Q01DX009 (ip), vehicle: water) was 95 % of control, the T/C (dose: 0.12 mg/kg/injection, schedule: Q01DX009 (ip), vehicle: water) was 100 % of control and the T/C (dose: 0.25 mg/kg/injection, schedule: Q01DX009 (ip), vehicle: water) was 104 % of control. The T/C (dose: 0.5 mg/kg/injection, schedule: Q01DX009 (ip), vehicle: water) was 95 % of control, the T/C (dose: 1.0 mg/kg/injection, schedule: Q01DX009 (ip), vehicle: water) was 86 % of control and 104 % of control and the T/C (dose: 2.0 mg/kg/injection, schedule: Q01DX009 (ip), vehicle: water) was 90 % of control and 95 % of control. The T/C (dose: 4.0 mg/kg/injection, schedule: Q01DX009 (ip), vehicle: water) was 90 % of control and the T/C (dose: 8.0 mg/kg/injection, schedule: Q01DX009 (ip), vehicle: water) was 95 % of control.

With `CCOC(=O)c1ccc(NC(=O)Nc2c(C)n(C)n(-c3ccccc3)c2=O)cc1` the T/C (dose: 50.0 mg/kg/injection, schedule: Q01DX009 (ip), vehicle: Klucel (hydroxypropylcellulose) (HPC)) was 100 % of control, the T/C [1] was 100 % of control and the T/C [2] was 90 % of control.

For `Cc1[nH]ccc2c(C)c3nc4ccccc4c3cc12`, the T/C (dose: 0.39 mg/kg/injection, schedule: Q01DX009 (ip), vehicle: saline with Tween-80) was 116 % of control, the T/C (dose: 0.59 mg/kg/injection, schedule: Q01DX009 (ip), vehicle: saline with Tween-80) was 100 % of control and the T/C (dose: 0.9 mg/kg/injection, schedule: Q01DX009 (ip), vehicle: saline with Tween-80) was 150 % of control. For the same compound, the T/C (dose: 1.35 mg/kg/injection, schedule: Q01DX009 (ip), vehicle: saline with Tween-80) was 160 % of control, the T/C (dose: 4.12 mg/kg/injection, schedule: Q01DX009 (ip), vehicle: saline with Tween-80) was 168 % of control and the T/C (dose: 8.25 mg/kg/injection, schedule: Q01DX009 (ip), vehicle: saline with Tween-80) was 177 % of control. The T/C (dose: 16.5 mg/kg/injection, schedule: Q01DX009 (ip), vehicle: saline with Tween-80) was 163 % of control, the T/C [3] was 165 % of control and 168 % of control and the T/C (dose: 37.5 mg/kg/injection, schedule: Q01DX009 (ip), vehicle: saline with Tween-80) was 225 % of control and 154 % of control.

In the case of `Cc1cc(NC(=O)c2ccc(C(=O)Nc3ccc(C4=NCCN4)c(C)c3)cc2)ccc1C1=NCCN1`, the T/C [4] is reported as 122 % of control and the T/C [5] is reported as 186 % of control.

For `Cc1cc(=O)c2cc(N(C)C)ccc2[nH]1`, the T/C (dose: 0.78 mg/kg/injection, schedule: Q01DX009 (ip), vehicle: water) was 110 % of control, the T/C (dose: 1.56 mg/kg/injection, schedule: Q01DX009 (ip), vehicle: water) was 100 % of control and the T/C (dose: 3.12 mg/kg/injection, schedule: Q01DX009 (ip), vehicle: water) was 101 % of control. For the same compound, the T/C (dose: 6.25 mg/kg/injection, schedule: Q01DX009 (ip), vehicle: water) was 93 % of control, the T/C (dose: 12.5 mg/kg/injection, schedule: Q01DX009 (ip), vehicle: water) was 94 % of control and 116 % of control and the T/C (dose: 25.0 mg/kg/injection, schedule: Q01DX009 (ip), vehicle: water) was 114 % of control. The T/C (dose: 50.0 mg/kg/injection, schedule: Q01DX009 (ip), vehicle: water) was 91 % of control, the T/C (dose: 50.0 mg/kg/injection, schedule: Q04DX003 (ip), vehicle: water) was 95 % of control and the T/C (dose: 100.0 mg/kg/injection, schedule: Q01DX009 (ip), vehicle: water) was 107 % of control. The T/C (dose: 100.0 mg/kg/injection, schedule: Q04DX003 (ip), vehicle: water) was 103 % of control, the T/C (dose: 200.0 mg/kg/injection, schedule: Q04DX003 (ip), vehicle: water) was 103 % of control and the T/C (dose: 400.0 mg/kg/injection, schedule: Q01DX009 (ip), vehicle: water) was 86 % of control. The T/C (dose: 400.0 mg/kg/injection, schedule: Q04DX003 (ip), vehicle: water) was 96 % of control.

With `CCc1cc(CC)n2cnnc2n1` the T/C (dose: 50.0 mg/kg/injection, schedule: Q01DX009 (ip), vehicle: saline) was 89 % of control and the T/C [6] was 89 % of control.

With `O=c1[nH]cc(CCc2ccccc2)c(=O)[nH]1` the T/C [7] was 105 % of control, the T/C [1] was 100 % of control and the T/C (dose: 100.0 mg/kg/injection, schedule: Q04DX003 (ip), vehicle: Klucel (hydroxypropylcellulose) (HPC)) was 104 % of control. For the same compound, the T/C [2] was 88 % of control, the T/C (dose: 200.0 mg/kg/injection, schedule: Q04DX003 (ip), vehicle: Klucel (hydroxypropylcellulose) (HPC)) was 100 % of control and the T/C (dose: 400.0 mg/kg/injection, schedule: Q01DX001 (ip), vehicle: Klucel (hydroxypropylcellulose) (HPC)) was 105 % of control. The T/C [8] was 92 % of control.

In the case of `Cc1ccc(CN(CC(=O)O)S(C)(=O)=O)cc1`, the T/C [9] is reported as 106 % of control, the T/C [10] is reported as 109 % of control and the T/C [11] is reported as 94 % of control.

With `CCOC(=O)CCSc1ccccc1` the T/C (dose: 25.0 mg/kg/injection, schedule: Q04DX003 (ip), vehicle: saline with Tween-80) was 98 % of control and the T/C [12] was 95 % of control.

For `O=[N+]([O-])c1cc(S(=O)(=O)NCc2ccco2)ccc1N/N=C/c1ccccn1`, the T/C (dose: 0.78 mg/kg/injection, schedule: Q01DX009 (ip), vehicle: saline with Tween-80) was 99 % of control, the T/C (dose: 1.56 mg/kg/injection, schedule: Q01DX009 (ip), vehicle: saline with Tween-80) was 99 % of control and the T/C (dose: 3.12 mg/kg/injection, schedule: Q01DX009 (ip), vehicle: saline with Tween-80) was 95 % of control.

For `NC(=O)NCCNC(N)=O`, the T/C [6] was 95 % of control, the T/C (dose: 100.0 mg/kg/injection, schedule: Q04DX003 (ip), vehicle: saline) was 112 % of control and the T/C (dose: 200.0 mg/kg/injection, schedule: Q01DX009 (ip), vehicle: saline) was 95 % of control. The T/C (dose: 200.0 mg/kg/injection, schedule: Q04DX003 (ip), vehicle: saline) was 95 % of control, the T/C (dose: 400.0 mg/kg/injection, schedule: Q01DX009 (ip), vehicle: saline) was 91 % of control and the T/C (dose: 400.0 mg/kg/injection, schedule: Q04DX003 (ip), vehicle: saline) was 112 % of control.

`O=C(CC(O)(C(F)(F)F)C(F)(F)F)c1ccccc1Cl` was tested, and the T/C [13] was 120 % of control, the T/C [14] was 100 % of control and the T/C (dose: 400.0 mg/kg/injection, schedule: Q04DX003 (ip), vehicle: saline with Tween-80) was 120 % of control.

With `CC(=O)Nc1ccc(C=Nc2ccc3c(c2)Cc2ccccc2-3)cc1` the T/C [1] was 109 % of control, the T/C [2] was 118 % of control and the T/C [8] was 118 % of control.

`O=C1C(=C2CCCCC2)SC(=S)N1c1ccccc1` was tested, and the T/C [15] was 106 % of control, the T/C [4] was 103 % of control and the T/C [5] was 103 % of control.

For `O=Nc1c(S(=O)(=O)O)cc2cc(S(=O)(=O)O)cc(O)c2c1O.[Cu+2]`, the T/C (dose: 1.25 mg/kg/injection, schedule: Q04DX003 (ip), vehicle: saline) was 97 % of control, the T/C (dose: 2.5 mg/kg/injection, schedule: Q04DX003 (ip), vehicle: saline) was 91 % of control and the T/C (dose: 5.0 mg/kg/injection, schedule: Q04DX003 (ip), vehicle: saline) was 115 % of control.

In the case of `CC(=O)NC(=O)NC(C)=O`, the T/C (dose: 100.0 mg/kg/injection, schedule: Q01DX001 (ip), vehicle: saline) is reported as 91 % of control, the T/C (dose: 200.0 mg/kg/injection, schedule: Q01DX001 (ip), vehicle: saline) is reported as 91 % of control and the T/C (dose: 400.0 mg/kg/injection, schedule: Q01DX001 (ip), vehicle: saline) is reported as 91 % of control.

For `CC(C)CC(B1OCCO1)(C1CCCCC1)C1CCCCC1`, the T/C (dose: 12.5 mg/kg/injection, schedule: Q01DX009 (ip), vehicle: saline with Tween-80) was 100 % of control, the T/C [3] was 100 % of control and the T/C [15] was 90 % of control. The T/C [9] was 109 % of control, the T/C [10] was 122 % of control and the T/C [11] was 122 % of control.

With `CC(=O)OCCC/C(=C\c1ccc2ccccc2c1)[N+](=O)[O-]` the T/C [1] was 118 % of control and the T/C [2] was 122 % of control.

With `O=c1c2ccccc2sc2c(CO)ccc(NCCN3CCCCC3)c12` the T/C [12] was 101 % of control, the T/C [13] was 101 % of control and the T/C (dose: 176.0 mg/kg/injection, schedule: Q04DX003 (ip), vehicle: saline with Tween-80) was 115 % of control. The T/C [14] was 110 % of control, the T/C (dose: 264.0 mg/kg/injection, schedule: Q04DX003 (ip), vehicle: saline with Tween-80) was 123 % of control and the T/C (dose: 600.0 mg/kg/injection, schedule: Q04DX003 (ip), vehicle: saline with Tween-80) was 180 % of control.

For `CC(=O)OCc1cc(=O)n(C)c2c3c4c(cc12)c(C)cc(=O)n4CO3`, the T/C [7] was 120 % of control.
